Like-named read-outs stand apart in the source and are kept apart here. Each block holds one compound with its values, some of them ahead of it.
Assays:
MIN6-K8 cells [1] = assay: Insulin secretion stimulation test using MIN6-K8 cells; assay type: cell-based; conditions: for insulin secretion from MIN6-K8 cells (relative to control): 1 μM to 100 μM test compound, 11.2 mM glucose, 30 minutes; for amount of insulin secretion from MIN6-K8 cells at 100 μM compared with 30 μM: concentration of 100 μM
Experimental: MIN6-K8 cells (cells similar to the MIN6-m9 cell line deposited as FERM P-18081) were cultured in Dulbecco's modified Eagle's medium (DMEM medium) supplemented with 10% FBS, 50 μM 2-mercaptoethanol, 100 mg/L streptomycin and 60.5 mg/L penicillin sulfate at 37° C. After washing the MIN 6-K8 cells twice with medium, the cells were washed twice with 133.4 mM NaCl, 4.7 mM KCl, 1.2 mM KH2PO4, 1.2 mM MgSO4, 2.5 mM CaCl2, 5.0 mM NaHCO3, 2.8 mM glucose, 0.1% BSA and 10 mM HEPES buffer (pH 7.4) for 30 minutes. Cells were then cultured for 30 minutes in the KRBH buffer containing the test compound and 11.2 mM glucose. After incubation, the concentration of insulin contained in the KRBH buffer solution was measured using an insulin assay kit (CIS Bio International Inc.). The concentration of insulin was obtained as a relative value when the concentration of insulin when the test compound was not added was taken as 1. Here, DSC108 and C8 were used as test compounds, and the abilities to promote insulin secretion of both drugs were compared within a concentration range of 1 μM to 100 μM. Measurement was carried out with n=3.
For the 1,1-diphenyl-4-cyclohexyl-semicarbazide derivatives numbered 2 to 7 shown in Table 1, an insulin secretion stimulation test using the above MIN6-K8 cells was performed. The concentration of the test compound was 100 μM, and the amount of secretion when the amount of insulin secreted when no test compound was added was taken as 1 was measured. Incidentally, the number 1 is 1,1-diphenyl-4-cyclohexyl-semicarbazide represented by the chemical formula (18). Numbers 2 to 7 are compounds in which one of hydrogen atoms on the cyclohexyl ring of 1,1-diphenyl-4-cyclohexyl-semicarbazide is substituted with a carboxyl group.

[2] = Measurement of blood concentration after oral administration
Experimental: (§1) Peripheral blood was collected over time from the tail vein after administration. The collected blood was centrifuged to obtain plasma. An extraction solution (chloroform:methanol:water=1:2:0.8) containing 20 μM methionine sulfone was added to the plasma, followed by stirring and centrifugation. After filtering the extracted solution fraction with a 5 kD filter (Millipore Inc.), the extract was lyophilized. The extract obtained by lyophilization was dissolved in pure water and subjected to mass spectrometry. Mass spectrometry was performed using a mass spectrometer (LCMS-8050, Shimazu Inc.) fitted with liquid chromatography (Nexera UHPLC, Shimazu Inc.). Separation by liquid chromatography was performed with a double gradient of 0.1% formic acid aqueous solution and 0.1% acetonitrile formic acid solution using Discovery HS F5 column (3 μm, 2.1 mm×150 mm, Shigma-Aldrich Inc.).

MIN6-K8 cells [3] = assay: Measurement of intracellular calcium ion concentration (Fura-2-AM); assay type: cell-based; conditions: 3 μM to 30 μM, 2.8 mM glucose
Experimental: In accordance with the method described in “Shimaoto K. Mol Pharmacol. 53, 195-201 (1998)”, measurement of intracellular calcium concentration was performed using fura-2-acetoxymethyl ester (Fura-2-AM, Dojindo Inc.) which is a calcium ion sensitive fluorescent reagent. MIN6-K8 cells were grown in Dulbecco's modified Eagle medium (DMEM medium) supplemented with 10% FBS, 50 μM 2-mercaptoethanol, 100 mg/L streptomycin and 60.5 mg/L penicillin sulfate in a humidified condition of 5% CO2, at 37° C.
MIN6-K8 cells were then left alone in KRBH buffer containing 5 μM Fura-2-AM and 2.8 mM glucose at 37° C. for 20 minutes. Then, KRBH buffer containing 3 μM, 10 μM or 30 μM of DSC108 was each added as a test compound and fluorescence intensity at 340 nm and 380 nm were measured using a dual wavelength fluorometer (Fluoroskan Ascent CF, Labsystem Inc.) over time for 20 minutes and the values of “fluorescence intensity at 340 nm/fluorescence intensity at 380 nm” were determined. […] Measurement was carried out with n=4.

[4] = target: T1, KATP channel (human SUR1 and human Kir6.2 reconstituted in COS-1 cells) (Homo sapiens, UniProt Q09428); assay: Electrophysiological test using KATP channel expressing COS-1 cells; assay type: cell-based; conditions: 300 μM diazoxide; read-out: IC50 of inhibition of polarization of COS-1 cell membrane via KATP channel induced by diazoxide
T1 construct: expressed in transfected cells; host or cells: COS-1 cells
T1 sequence (Q09428 whole entry): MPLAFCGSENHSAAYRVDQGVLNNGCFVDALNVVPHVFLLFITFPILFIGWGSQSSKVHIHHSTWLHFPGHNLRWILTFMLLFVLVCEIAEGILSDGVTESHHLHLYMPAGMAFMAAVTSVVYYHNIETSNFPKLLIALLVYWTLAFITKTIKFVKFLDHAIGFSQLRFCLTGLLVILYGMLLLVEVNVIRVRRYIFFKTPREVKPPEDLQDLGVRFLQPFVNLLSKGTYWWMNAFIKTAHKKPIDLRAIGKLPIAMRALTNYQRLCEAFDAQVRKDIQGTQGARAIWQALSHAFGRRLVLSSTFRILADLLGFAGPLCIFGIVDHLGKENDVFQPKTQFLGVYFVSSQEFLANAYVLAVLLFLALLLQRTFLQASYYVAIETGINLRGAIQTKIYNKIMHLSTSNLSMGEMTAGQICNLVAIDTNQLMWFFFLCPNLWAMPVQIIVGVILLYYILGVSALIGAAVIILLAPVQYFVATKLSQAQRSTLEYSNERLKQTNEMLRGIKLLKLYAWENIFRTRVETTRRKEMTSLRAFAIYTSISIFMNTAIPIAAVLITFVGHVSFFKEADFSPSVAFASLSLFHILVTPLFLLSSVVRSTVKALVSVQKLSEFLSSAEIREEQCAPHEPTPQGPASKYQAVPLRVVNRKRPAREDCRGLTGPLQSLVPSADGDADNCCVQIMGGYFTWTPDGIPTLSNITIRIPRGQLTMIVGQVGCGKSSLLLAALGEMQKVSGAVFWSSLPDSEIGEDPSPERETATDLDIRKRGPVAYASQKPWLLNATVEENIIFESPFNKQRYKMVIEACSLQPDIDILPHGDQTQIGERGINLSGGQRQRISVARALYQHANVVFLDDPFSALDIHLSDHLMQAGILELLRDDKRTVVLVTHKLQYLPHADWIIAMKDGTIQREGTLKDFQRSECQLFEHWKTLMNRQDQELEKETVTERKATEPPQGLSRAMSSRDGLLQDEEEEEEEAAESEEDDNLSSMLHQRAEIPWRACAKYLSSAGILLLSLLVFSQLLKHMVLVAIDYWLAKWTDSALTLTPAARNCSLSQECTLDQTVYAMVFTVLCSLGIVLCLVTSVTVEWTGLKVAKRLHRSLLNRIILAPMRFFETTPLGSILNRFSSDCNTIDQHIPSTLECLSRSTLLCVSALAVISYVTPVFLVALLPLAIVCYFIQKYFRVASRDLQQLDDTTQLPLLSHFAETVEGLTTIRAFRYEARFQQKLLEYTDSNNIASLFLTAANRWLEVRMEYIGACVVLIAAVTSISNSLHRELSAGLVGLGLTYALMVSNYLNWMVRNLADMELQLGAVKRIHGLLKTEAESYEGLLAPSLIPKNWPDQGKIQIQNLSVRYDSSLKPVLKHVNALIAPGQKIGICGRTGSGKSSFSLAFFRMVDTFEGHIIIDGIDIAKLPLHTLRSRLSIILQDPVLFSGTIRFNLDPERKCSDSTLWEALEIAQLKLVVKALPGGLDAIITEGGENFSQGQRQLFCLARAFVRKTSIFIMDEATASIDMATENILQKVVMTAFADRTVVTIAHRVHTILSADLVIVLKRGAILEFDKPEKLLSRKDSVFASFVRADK
T1 sequence (Q14654 whole entry partner): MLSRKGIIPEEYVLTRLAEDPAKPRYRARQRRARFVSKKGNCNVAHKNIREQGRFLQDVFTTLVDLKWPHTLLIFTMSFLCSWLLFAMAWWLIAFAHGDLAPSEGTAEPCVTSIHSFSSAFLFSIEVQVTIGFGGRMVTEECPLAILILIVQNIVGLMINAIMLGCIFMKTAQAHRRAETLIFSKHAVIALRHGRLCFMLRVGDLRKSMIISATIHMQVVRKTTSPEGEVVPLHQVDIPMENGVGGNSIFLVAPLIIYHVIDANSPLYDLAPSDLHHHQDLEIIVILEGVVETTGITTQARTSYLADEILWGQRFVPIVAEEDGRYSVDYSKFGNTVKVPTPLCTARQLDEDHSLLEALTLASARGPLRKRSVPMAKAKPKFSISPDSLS
Experimental: Expression vectors incorporating the gene encoding human SUR1 (hSUR1) and expression vector incorporating the gene encoding human Kir6.2 (hKir6.2) were introduced into COS-1 cells together, and the KATP channel was reconstituted with COS-1 cells (Inagaki N. Science. 270, 1166-70 (1995)). The cells were cultured in DMEM medium (Sigma-Aldrich Inc.) supplemented with 10% FBS and plated on a 3.5 cm dish on which glass flakes coated with collagen had been spread prior to the experiment, and incubated at 37° C. for 24 to 72 hours.
The membrane potential of COS-1 cells reconstituted with KATP channels was determined by the method described in (Gonoi TJ Biol. Chem., 269: 16989-92 (1994)), in the current clamp mode with perforated patch clamp method. […] Inhibitory effect of DSC108 on the polarization of COS-1 cell membrane via KATP channel induced by 300 μM diazoxide (Sigma Chemical Inc.) under these conditions was measured.
At this time, outward current induced by 300 μM diazoxide (Sigma Chemical Inc.) was measured by […] patch clamp assay, and this value was set to 0 mV. The value of outward current when DSC108, glibenclamide or glicrazaide (Sigma Chemical Inc.) was added together with diazoxide was determined to determine the inhibitory effect (IC50) of these agents on the polarization of the cell membrane induced by diazoxide.

human SUR1 (hSUR1) = target: T2, human SUR1 (hSUR1) (Homo sapiens, UniProt Q09428); assay: [^3H] glibenclamide competition test; assay type: binding; conditions: 10 nM [^3H] glibenclamide, 30 minutes
T2 construct: expressed in transfected cells
T2 sequence (Q09428 whole entry): as the sequence (Q09428 whole entry) above
Experimental: An expression vector incorporating a gene encoding human SUR1 (hSUR1) was introduced into MIN6-K8 cells by a conventional method to establish a cell line MIN6-K8, which expresses hSUR1 strongly. The MIN6-K8 cells expressing strongly hSUR1 were cultured in a buffer containing 10 nM [^3H] glibenclamide and DSC108-Na for 30 minutes. In this, the concentration of DSC108-Na in the buffer was 300 μM to 1 mM. The cells were vacuum-filtered and recovered on Whatmann GF/C filters (Whatmann International Inc.), and then the filters were washed three times with 4 mL of ice-cold buffer. After washing, radioactivities of the filters were measured with a liquid scintillation counter, and the amount of [^3H] glibenclamide bound to MIN6-K8 cells expressing strongly hSUR1 via hSUR1 was measured. Then, the value at the time of non-addition of DSC108-Na was taken as 100%, and the binding amount (%) of [^3H] glibenclamide to MIN6-K8 cells was determined as a relative value to this value.

pancreatic β cells = assay: Electrophysiological test using pancreatic β cells (membrane potential, perforated patch clamp); assay type: cell-based, C57BL/6 mice; conditions: in the presence of 30 μM compound; −69±2 mV in its absence
Experimental: Islets were isolated from C57BL/6 mice by collagenase digestion method in accordance with the method described “in Shibasaki T. Proc Natl Acad Sci USA. 104, 19333-8 (2007)”. The pancreatic islet cells were dispersed and cultured in DMEM supplemented with 10% FBS, and then plated on a 3.5 cm dish sheeted prior to the experiment with a glass flake coated with collagen.
Membrane potential of pancreatic β cells was measured by a perforated patch clamp method (Gonoi T J J. Biol. Chem., 269: 16989-92 (1994)) in current clamp mode. As an extracellular solution, 5 mM HEPES buffer-NaOH (pH 7.4) containing 143 mM NaCl, 5.4 mM KCl, 1.8 mM CaCl2, 0.5 mM MgCl2, 0.33 mM NaHPO4 and 5.5 mM glucose was used. As a pipette solution, 11 mM HEPES-KOH buffer (pH 7.4) containing 107 mM KCl, 11 mM EGTA, 2 mM MgSO4, 1 mM CaCl2 and […] ATP-K2 was used. Under this condition, outward current induced by 30 μM DSC108 was measured by a pierced patch clamp assay.

mouse pancreases = assay: Insulin secretion stimulation test using mice (pancreas perfusion); assay type: in vivo; conditions: 10 μM, 2.8 mM glucose, perfused mouse pancreas
Experimental: Insulin secretion stimulation test using mouse was performed in accordance with the method described in Bonnevie-Nielsen V. Diabetes. 30. 424-9 (1981) and Miki T. Diabetes. 54. 1056-63 (2005). Male mice, 16 to 20 weeks old, fasted for 6 hours, were anesthetized by administering sodium pentobarbital at a dose of 80 mg/kg body weight. The anesthetized mouse pancreases were perfused with KRBH buffer containing 4.6% dextran and 0.25% BSA aerated at 95% O2/5% CO2.
Subsequently, mouse pancreases were perfused with KRBH buffer containing 2.8 mM glucose and 10 μM DSC 108, and the perfused solution was collected every minute, and the concentration of insulin contained in the perfusion solution was measured with an insulin assay kit (CIS Bio international Inc.) over time. IN parallel, as a control, mouse pancreases were perfused with a KRBH buffer solution containing 2.8 mM glucose, and the concentration of insulin contained in the perfusion solution was measured in the same manner.

wild type mice = assay: Measurement of hypoglycemic action using wild type mice (glucose loading); assay type: in vivo, C57BL/6JJc1 mice; conditions: oral 10 to 100 mg/kg body weight, 20 minutes before glucose loading 1.5 g/kg
Experimental: To male C57BL/6JJc1 mice (CLEA Japan Inc.) of 18 to 30 weeks old fasted for 16 hours, 10, 30 or 100 mg/kg body weight of DSC108-Na was orally administered 20 minutes before glucose loading (1.5 g glucose/kg body weight) (10 mg/kg body weight administration group, 30 mg/kg body weight administration group and 100 mg/kg body weight administration group, respectively). As a control, DSC108-Na non-administration group (vehicle administration group) was placed. Glucose concentration in the blood was measured over time over 120 minutes after the administration using Antsense III glucose analyzer (Horiba Inc.). Measurement was carried out using 4 mice in each group.

[5] = test system: type 2 diabetes model rats; assay: Measurement of hypoglycemic action using type 2 diabetes model rats (glucose loading); assay type: in vivo; conditions: GK/Slc rats, oral 100 mg/kg body weight
Experimental: To male GK/Slc rats (Japan SLC Inc.) 18-30 weeks old fasted for 6 hours, DSC108-Na was orally administered at 100 mg/kg body weight 20 minutes before glucose loading (1.5 g glucose/kg body weight) (DSC108-Na administration group). As a control, DSC108-Na non-administration group (vehicle administration group) was placed. The glucose concentration in the blood was measured using Antsense III glucose analyzer (Horiba Inc.). In addition, blood insulin concentration was measured by an ELISA method using an insulin measurement kit (Morinaga Inc.). Not limited to this examination, all animal tests were conducted in accordance with the provisions of the Kobe University Animal Experiment Implementation Rules with the approval of the Animal Experimental Ethics Committee of Kobe University.

[6] = mouse, in vivo, po, 30 mg/kg
Experimental: as §1

Structure (SMILES): S=C(NC1CCCCC1)NN(c1ccccc1)c1ccccc1 [C8, 1,1-diphenyl-4-cyclohexyl-thiosemicarbazide]
insulin secretion from MIN6-K8 cells (relative to control) (MIN6-K8 cells [1]): promoted insulin secretion from MIN6-K8 cells in a concentration-dependent manner
amount of insulin secretion from MIN6-K8 cells at 100 μM compared with 30 μM (MIN6-K8 cells [1]): decreased as compared with the concentration at 30 μM

concentration at 120 min ([2]; male, C57BL/6JJc1, mouse, plasma, po, 30 mg/kg): 75 µM
time after administration of the highest blood concentration ([2]; mice, oral, 30 mg/kg body weight): 60 min
highest value in blood concentration ([2]; mice, oral, 30 mg/kg body weight, plasma): approximately 100 μM
Structure (SMILES): Cc1ccc(S(=O)(=O)NC(=O)NN2CC3CCCC3C2)cc1 (centres unmarked) [Glyclazide, gliclazide]

IC50 [4]: 2300 nM
Structure (SMILES): O=C(O)[C@H]1CC[C@@H](NC(=S)NN(c2ccccc2)c2ccccc2)CC1 [DSC108]
intracellular calcium ion concentration (fluorescence 340 nm/380 nm) (MIN6-K8 cells [3]): increased intracellular calcium ion concentration in a concentration-dependent manner
insulin secretion promoting ability compared between the two test compounds (MIN6-K8 cells [1]; 1 μM to 100 μM): higher insulin secretion promoting ability as compared with C8
insulin secretion from MIN6-K8 cells (relative to control) (MIN6-K8 cells [1]): promoted insulin secretion from MIN6-K8 cells in a concentration-dependent manner
amount of insulin secretion from MIN6-K8 cells at 100 μM compared with 30 μM (MIN6-K8 cells [1]): decreased as compared with the concentration at 30 μM
binding of [^3H] glibenclamide to hSUR1-strongly expressed MIN6-K8 cells (human SUR1 (hSUR1)): inhibited the binding of [^3H] glibenclamide to hSUR1-strongly expressed MIN6-K8 cells in a concentration-dependent manner
membrane potential of pancreatic β cells (pancreatic β cells): −54±4 mV
time after initiation of perfusion at which insulin concentration in the perfusion liquid increased (mouse pancreases): 5 min
time after start of perfusion at which insulin concentration returned to baseline (mouse pancreases): 9 min

disappearance from the blood [6]: quickly disappeared from the blood
highest value in blood concentration [6]: 72.4 µM
time after administration of the highest blood concentration [6]: 30 min
Structure (SMILES): O=C(O)[C@H]1CC[C@@H](NC(=S)NN(c2ccccc2)c2ccccc2)CC1 [DSC108-Na]
hypoglycemic effect (blood glucose concentration) (wild type mice): dose-dependent hypoglycemic effect
duration of the effect of lowering the glucose concentration in the blood [5]: 120 min
blood levels of insulin ([5]; 20 minutes after administration): increase in blood levels of insulin was observed

— US10759749B2, “Therapeutic agent for diabetes” (JCR Pharmaceuticals Co., Ltd., priority 2016, dated 2020)
